Data on one molecule can be found in patent US20230035690A1, “MACHINE LEARNING TOOLS AND A PROCESS TO DISCOVER NEW NATURAL PRODUCTS BY LINKING GENOMES AND M[…] FUNGI” (Northwestern University, priority 2019, published 2023).

The assay relates to A. fumigatus IDO mutants. In words: growth inhibition test against A. fumigatus IDO mutants. In kind it is cell-based. The following applies: tested against A. fumigatus IDO mutants. The text has this: In addition to re-purposing duplicated primary metabolism genes to have a biosynthetic role, fungi also utilize duplicated genes from primary metabolism as a form of self-resistance (Refs. A34, A35; incorporated by reference in their entireties). This Type II repurposing represents a particularly attractive avenue for drug discovery, as the duplicated gene will often provide insight into the mechanism of action of the encoded secondary metabolite. Several examples of such Type II repurposing have been discovered by targeting clusters with duplicate resistance targets. The proteasome inhibitor fellutamide B, for example, was discovered due to the presence of a duplicated proteasome subunit within its BGC (36). Similarly, the BGC encoding the methionine aminopeptidase inhibitor fumagillin contains both type I and type II methionine aminopeptidase genes in the gene cluster (FIG. 10) (Ref. A37; incorporated by reference in its entirety). While it is likely that many of the IDOs contained within the BGCs depicted in FIGS. 8 and 9 represent Type I biosynthetic enzymes that provide kynurenine for secondary metabolite synthesis, it is also possible that they represent Type II duplicated gene targets that serve to protect the producing organism against the biosynthetic product. […]

Take `Nc1ccccc1C(=O)NC1CC(=O)c2ccccc2NC1=O` (stereo not shown) [terreazepine, 2-amino-N-(2,3,4,5-tetrahydro-2,5-dioxo-1H-1-benzazepin-3-yl)benzamide]: the growth inhibitory activity entry was “no growth inhibitory activity was observed”.
